Experimental findings from US11999786B2, “Anti-CD48 antibodies, antibody drug conjugates, and uses thereof” (Novartis AG, priority 2020, dated 2024) are described below.

What all share (format): cell-based
For one test, the system named is KMS-27. Briefly: Internalization and cell proliferation assay (CellTiter-Glo, with secondary anti-human Fc-VC-MMAE ADC). As to conditions: KMS-27, CellTiter-Glo. As for the experimental part:
(§1) The internalization activity of CD48 antibodies were tested against three endogenous cancer cell lines: KMS-27: JCRB No. JCRB1188 cultured in RPMI-1640+10% FBS; NCI-H929: ATCC No. CRL-9068 cultured in RPMI-1640+10% FBS+0.05 mM 2-mercaptoethanol; and KMS-21-BM: JCRB No. JCRB1185 cultured in RPMI-1640+10% FBS.
(§2) CD48 antibodies were synthesized and expressed generally as described in Example 5. Cell lines were cultured in media that is optimal for their growth at 5% CO2, 37° C. in a tissue culture incubator. Prior to seeding for the proliferation assay, the cells were split at least 2 days before the assay to ensure optimal growth density. On the day of seeding, cell viability and cell density were determined using a cell counter (Vi-Cell XR Cell Viability Analyzer, Beckman Coulter). Cells with higher than 85% viability were seeded in white clear bottom 384-well TC treated plates (Corning cat. #3765). Cells were seeded at a density of 1,000 cells per well in 40 μL of standard growth media. Plates were incubated at 5% CO2, 37° C. overnight in a tissue culture incubator. The next day free MMAE payload, a CD48A-CysMab-VC-MMAE ADC (synthesis described in Example 5), CD48 antibodies, and a non-targeting isotype antibody were prepared at 10× in standard growth media. The MMAE free payload and CD48A-CysMab-VC-MMAE ADC were added to the cells resulting in final concentrations of 0.007-150 nM and a final volume of 50 μL per well. The prepared antibody treatments, including CD48 IgGs and a non-targeting isotype antibody, were then added to the cells resulting in final concentrations of 0.001-20 nM and a final volume of 45 μL per well. An anti-human Fc-VC-MMAE ADC (DAR2.0) was prepared at 10× in standard growth media. The prepared ADC was then added to the cells resulting in a final concentration of 60 nM and a final volume of 50 μL per well. Each drug concentration was tested in quadruplets. Plates were incubated at 5% CO2, 37° C. for 5 days in a tissue culture incubator, after which cell viability was assessed through the addition of 25 μL of CellTiter Glo® (Promega, cat #G7573), a reagent which lyses cells and measures total adenosine triphosphate (ATP) content. Plates were incubated at room temperature for 10 minutes to stabilize luminescent signals prior to reading using a luminescence reader (EnVision Multilabel Plate Reader, PerkinElmer). To evaluate the effect of the drug treatments, luminescent counts from wells containing untreated cells (100% viability) were used to normalize treated samples. A variable slope model was applied to fit a nonlinear regression curve to the data in GraphPad PRISM version 7.02 software. IC50 and Amax values were extrapolated from the resultant curves.
(§3) The dose response curves of representative cancer cell lines are shown in FIG. 2A (KMS-27), FIG. 2B (NCI-H929), and FIG. 2C (KMS-21-BM).

The next test deals with KMS-21-BM. The description is as above. The procedure:
as §1, §2, §3

The next test relates to NCI-H929. Described as above. As for the experimental part: as §1, §2, §3
Test [1] deals with KMS-27, NCI-H929 and KMS-21-BM cancer cell lines. Briefly: Internalization and cell proliferation assay, statements across the three cancer cell lines. As to conditions: range across the three cell lines; dosed directly, 5 days, CellTiter-Glo. The procedure:
as §1
CD48 antibodies were synthesized and expressed generally as described in Example 5. Cell lines were cultured in media that is optimal for their growth at 5% CO2, 37° C. in a tissue culture incubator. Prior to seeding for the proliferation assay, the cells were split at least 2 days before the assay to ensure optimal growth density. On the day of seeding, cell viability and cell density were determined using a cell counter (Vi-Cell XR Cell Viability Analyzer, Beckman Coulter). Cells with higher than 85% viability were seeded in white clear bottom 384-well TC treated plates (Corning cat. #3765). […] Plates were incubated at 5% CO2, 37° C. for 5 days in a tissue culture incubator, after which cell viability was assessed through the addition of 25 μL of CellTiter Glo® (Promega, cat #G7573), a reagent which lyses cells and measures total adenosine triphosphate (ATP) content. Plates were incubated at room temperature for 10 minutes to stabilize luminescent signals prior to reading using a luminescence reader (EnVision Multilabel Plate Reader, PerkinElmer). […]

Non-standard residues stand in square brackets, D forms with d. Residues, ends and D or L forms follow the SMILES beside them. *: point of attachment. Dolaproine = CO[C@@H]([C@@H]1CCCN1)[C@@H](C)C(=O)O; Dil = CC[C@H](C)[C@H](NC)[C@@H](CC(=O)O)OC; X1 = C[C@@H](N*)[C@@H](O)c1ccccc1; NMeV = CN[C@H](C(=O)O)C(C)C

By IC50 is commonly meant the midpoint of a concentration-inhibition curve. The low end stands for inhibition by little substance, the high end for a need for much substance. Turning to `CC[C@H](C)[C@@H]([C@@H](CC(=O)N1CCC[C@H]1[C@H](OC)[C@@H](C)C(=O)N[C@H](C)[C@@H](O)c1ccccc1)OC)N(C)C(=O)[C@@H](NC(=O)[C@@H](NC)C(C)C)C(C)C` [MMAE] (H-[NMeV]V[Dil][Dolaproine]-X1), the half-maximal inhibitory concentration (IC50) is 0.021 nM with KMS-27, 0.024 nM in the test with KMS-21-BM, 0.116 nM with NCI-H929 and 0.021 to 0.116 nM in test [1]. For the same compound, the entries for the “Span (Amax)” value in the test on KMS-27, in the test with KMS-21-BM and in the test with NCI-H929 were 83.9, 72.9 and 88.5, respectively.
